Where two headings read alike, the source gives them in different places. Peptide text beside a SMILES is read from it. * marks the point of attachment. Boc = CC(C)(C)OC(=O)*
Test system: Raf-1^gof intestinal tumors
Settings: for Log2 (fold) (luciferase activity, log2 of the fold difference relative to DMSO controls) / Fold (luciferase activity, fold difference relative to DMSO controls): screen of 480 ICCB compounds in vials, compounds fed to flies with one-day old Raf-1^gof tumors, esg-Gal4 luciferase
[1] = assessed three days later, averaged from multiple wells
[2] = ICCB compounds fed in vials to flies with one-day old Raf-1^gof tumors, assessed three days later
[3] = ICCB compounds fed in vials to flies with one-day old Raf-1^gof tumors, assessed three days later, averaged from multiple wells
Also: test concentration or dose not given here.

Cc1ccc(S(=O)(=O)/C=C/C#N)cc1 [BAY 11-7082]
Log2 (fold) (luciferase activity, log2 of the fold difference relative to DMSO controls) (assessed three days later): −0.470
Fold (luciferase activity, fold difference relative to DMSO controls) [1]: 0.722

COC(=O)C1=C(C)NC(C)=C([N+](=O)[O-])C1c1ccccc1C(F)(F)F (stereo not drawn) [BAY K-8644]
Log2 (fold) of luciferase activity relative to DMSO controls [2]: −0.027
Fold (luciferase activity relative to DMSO controls) [3]: 0.982 fold

NC(=NCc1ccccc1)NC(=O)c1nc(Cl)c(N)nc1N [BENZAMIL]
Log2 (fold) of luciferase activity relative to DMSO controls [2]: 0.006
Fold (luciferase activity relative to DMSO controls) [3]: 1.004 fold

CC(C)COCC(CN(Cc1ccccc1)c1ccccc1)N1CCCC1 (stereo not drawn) [BEPRIDIL]
Log2 (fold) of luciferase activity relative to DMSO controls [2]: −0.054
Fold (luciferase activity relative to DMSO controls) [3]: 0.963 fold

COc1ccc2c(c1)c(CC(=O)N1CCOCC1)c(C)n2C(=O)c1ccc(Cl)cc1 [BML-190]
Log2 (fold) of luciferase activity relative to DMSO controls [2]: −0.202
Fold (luciferase activity relative to DMSO controls) [3]: 0.869 fold

CC(C)C[C@H](NC(=O)[C@@H](O)[C@H](N)Cc1ccccc1)C(=O)O [Bestatin]
Log2 (fold) (luciferase activity, log2 of the fold difference relative to DMSO controls) (assessed three days later): −0.688
Fold (luciferase activity, fold difference relative to DMSO controls) [1]: 0.621

C=C(C)[C@@H]1CC[C@]2(C(=O)O)CC[C@]3(C)[C@H](CC[C@@H]4[C@@]5(C)CC[C@H](O)C(C)(C)[C@@H]5CC[C@]43C)[C@@H]12 [Betulinic acid]
Log2 (fold) (luciferase activity, log2 of the fold difference relative to DMSO controls) (assessed three days later): −0.708
Fold (luciferase activity, fold difference relative to DMSO controls) [1]: 0.612

Cc1ccc2c(c1)C(=O)C1(O)CCN(c3ccccc3)C1=N2 (stereo not drawn) [Blebbistatin]
Log2 (fold) of luciferase activity relative to DMSO controls [2]: 0.196
Fold (luciferase activity relative to DMSO controls) [3]: 1.146 fold

CC(C)[C@H](NC(=O)CNC(=O)OC(C)(C)C)C(=O)N[C@H](C=O)C(C)C [Boc-GVV-CHO] (Boc-Gly-Val-Val-aldehyde)
Log2 (fold) (luciferase activity, log2 of the fold difference relative to DMSO controls) (assessed three days later): −0.696
Fold (luciferase activity, fold difference relative to DMSO controls) [1]: 0.617

Nc1ncnc2c1nc(Br)n2C1O[C@H]2COP(=O)(O)O[C@@H]2[C@@H]1O (stereo partly drawn) [Bromo-cAMP [8-Bromo-cAMP]]
Log2 (fold) of luciferase activity relative to DMSO controls [2]: −0.045
Fold (luciferase activity relative to DMSO controls) [3]: 0.969 fold

Nc1nc2c(nc(Br)n2[C@@H]2O[C@@H]3COP(=O)(O)O[C@H]3[C@H]2O)c(=O)[nH]1 [Bromo-cGMP [8-Bromo-cGMP]]
Log2 (fold) of luciferase activity relative to DMSO controls [2]: 0.021
Fold (luciferase activity relative to DMSO controls) [3]: 1.015 fold

CCCCCCCCCCCCC/C=C/[C@@H](O)[C@H](CO)NC(C)=O [C2 CERAMIDE]
Log2 (fold) (luciferase activity, log2 of the fold difference relative to DMSO controls) (assessed three days later): −0.493
Fold (luciferase activity, fold difference relative to DMSO controls) [1]: 0.711

CCCCCCCCCCCCCCC[C@@H](O)[C@H](CO)NC(C)=O [C2 DIHYDROCERAMIDE]
Log2 (fold) (luciferase activity, log2 of the fold difference relative to DMSO controls) (assessed three days later): −0.466
Fold (luciferase activity, fold difference relative to DMSO controls) [1]: 0.724

CCCCCCCCCCCCC/C=C/[C@@H](O)[C@H](CO)NC(=O)CCCCCCC [C8 CERAMIDE]
Log2 (fold) (luciferase activity, log2 of the fold difference relative to DMSO controls) (assessed three days later): −0.427
Fold (luciferase activity, fold difference relative to DMSO controls) [1]: 0.744

CCCCCCCCCCCCC/C=C/[C@@H](O)[C@H](CO)NCCCCCCCC [C8 CERAMINE]
Log2 (fold) (luciferase activity, log2 of the fold difference relative to DMSO controls) (assessed three days later): −0.302
Fold (luciferase activity, fold difference relative to DMSO controls) [1]: 0.811

CCCCCCCCCCCCCCC[C@@H](O)[C@H](CO)NC(=O)CCCCCCC [C8 DIHYDROCERAMIDE]
Log2 (fold) (luciferase activity, log2 of the fold difference relative to DMSO controls) (assessed three days later): −0.423
Fold (luciferase activity, fold difference relative to DMSO controls) [1]: 0.746

CCCCCCCCCCCCC/C=C/[C@@H](O)[C@H](CO)NC(=O)CCCCCCCCCCCCCCC [C16 CERAMIDE]
Log2 (fold) (luciferase activity, log2 of the fold difference relative to DMSO controls) (assessed three days later): −0.496
Fold (luciferase activity, fold difference relative to DMSO controls) [1]: 0.709

CCCCCCCCCCCCCCCCOC[C@H](COP(=O)([O-])OCC[N+](C)(C)C)OC(=O)NC [C-PAF]
Log2 (fold) of luciferase activity relative to DMSO controls [2]: 0.119
Fold (luciferase activity relative to DMSO controls) [3]: 1.086 fold

CCCNC(=O)[C@H]1O[C@@H]1C(=O)N[C@H](C(=O)N1CCC[C@H]1C(=O)OC)[C@@H](C)CC [CA-074-Me]
Log2 (fold) of luciferase activity relative to DMSO controls [2]: −0.114
Fold (luciferase activity relative to DMSO controls) [3]: 0.924 fold

O=C(/C=C/c1ccc(O)c(O)c1)OCCc1ccccc1 [CAPE]
Log2 (fold) (luciferase activity, log2 of the fold difference relative to DMSO controls) (assessed three days later): −0.324
Fold (luciferase activity, fold difference relative to DMSO controls) [1]: 0.799

CCCCC[C@H](O)/C=C/[C@@H]1[C@H]2C/C(=C/CCCC(=O)O)C[C@H]2C[C@H]1O [CARBACYCLIN]
Log2 (fold) (luciferase activity, log2 of the fold difference relative to DMSO controls) (assessed three days later): −0.283
Fold (luciferase activity, fold difference relative to DMSO controls) [1]: 0.822

N#C/C(=C\c1ccc(O)c(O)c1)C(=O)OC/C=C/c1ccccc1 [CDC]
Log2 (fold) (luciferase activity, log2 of the fold difference relative to DMSO controls) (assessed three days later): −0.360
Fold (luciferase activity, fold difference relative to DMSO controls) [1]: 0.779

O=C1CSC(c2ccccc2Cl)c2cc(Cl)ccc2N1 (stereo not drawn) [CGP-37157]
Log2 (fold) of luciferase activity relative to DMSO controls [2]: −0.195
Fold (luciferase activity relative to DMSO controls) [3]: 0.873 fold

CC1(COc2ccc(CC3SC(=O)NC3=O)cc2)CCCCC1 (stereo not drawn) [CIGLITAZONE]
Log2 (fold) of luciferase activity relative to DMSO controls [2]: 0.038
Fold (luciferase activity relative to DMSO controls) [3]: 1.027 fold

CC(C)NCC(O)c1ccc(N)c(C#N)c1 (stereo not drawn) [CIMATEROL]
Log2 (fold) (luciferase activity, log2 of the fold difference relative to DMSO controls) (assessed three days later): −0.598
Fold (luciferase activity, fold difference relative to DMSO controls) [1]: 0.661

c1ccc(C2CC2)c(OCC2=NCCN2)c1 [CIRAZOLINE]
Log2 (fold) of luciferase activity relative to DMSO controls [2]: 0.121
Fold (luciferase activity relative to DMSO controls) [3]: 1.088 fold

Clc1ccc(-c2nc3sccn3c2/C=N/OCc2ccc(Cl)c(Cl)c2)cc1 [CITCO]
Log2 (fold) of luciferase activity relative to DMSO controls [2]: −0.162
Fold (luciferase activity relative to DMSO controls) [3]: 0.894 fold

CCOC(=O)C(C)(C)Oc1ccc(Cl)cc1 [CLOFIBRATE]
Log2 (fold) of luciferase activity relative to DMSO controls [2]: 0.221
Fold (luciferase activity relative to DMSO controls) [3]: 1.165 fold

O=C([O-])CCC/C=C\CC1C(O)CC(O)C1/C=C/C(O)COc1cccc(Cl)c1.[Na+] (stereo not drawn) [CLOPROSTENOL Na]
Log2 (fold) of luciferase activity relative to DMSO controls [2]: 0.101
Fold (luciferase activity relative to DMSO controls) [3]: 1.073 fold

CC(=O)C1=C(O)[C@@H]2[C@H]3c4c[nH]c5cccc(c45)C[C@H]3C(C)(C)N2C1=O [CYCLOPIAZONIC ACID]
Log2 (fold) of luciferase activity relative to DMSO controls [2]: 0.072
Fold (luciferase activity relative to DMSO controls) [3]: 1.051 fold

C/C=C/C/C=C/CCC(=O)[C@H]1O[C@H]1C(N)=O [Cerulenin]
Log2 (fold) (luciferase activity, log2 of the fold difference relative to DMSO controls) (assessed three days later): −0.474
Fold (luciferase activity, fold difference relative to DMSO controls) [1]: 0.720

COc1cc(/C=C/C(=O)CC(=O)/C=C/c2ccc(O)c(OC)c2)ccc1O [Curcumin]
Log2 (fold) of luciferase activity relative to DMSO controls [2]: 0.112
Fold (luciferase activity relative to DMSO controls) [3]: 1.081 fold

CCCCC[C@H](O)C/C=C1/C(=O)C=C[C@@H]1C/C=C\CCCC(=O)O [D12-PROSTAGLANDIN J2]
Fold (luciferase activity relative to DMSO controls) (in vivo): 0.988 fold
Log2 (fold) of luciferase activity relative to DMSO controls (in vivo): −0.017

O=C1CN(/N=C/c2ccc(-c3ccc([N+](=O)[O-])cc3)o2)C(O)=N1 [DANTROLENE]
Log2 (fold) of luciferase activity relative to DMSO controls [2]: −0.098
Fold (luciferase activity relative to DMSO controls) [3]: 0.934 fold

CC1=NS(=O)(=O)c2cc(Cl)ccc2N1 [DIAZOXIDE]
Log2 (fold) (luciferase activity, log2 of the fold difference relative to DMSO controls) (assessed three days later): −0.257
Fold (luciferase activity, fold difference relative to DMSO controls) [1]: 0.837

NC(=NC(=O)c1nc(Cl)c(N)nc1N)NCc1ccc(Cl)c(Cl)c1 [DICHLOROBENZAMIL]
Log2 (fold) of luciferase activity relative to DMSO controls [2]: −0.116
Fold (luciferase activity relative to DMSO controls) [3]: 0.923 fold

CCCCC/C=C\C/C=C\C/C=C\CCCCCCC(=O)O [DIHOMO-GAMMA-LINOLENIC ACID]
Log2 (fold) of luciferase activity relative to DMSO controls [2]: 0.323
Fold (luciferase activity relative to DMSO controls) [3]: 1.251 fold

CCCCCCCCCCCCCCC[C@@H](O)[C@@H](N)CO [DIHYDROSPHINGOSINE]
Log2 (fold) of luciferase activity relative to DMSO controls [2]: 0.000
Fold (luciferase activity relative to DMSO controls) [3]: 1.000 fold

c1ccc2c(Cc3c[nH]c4ccccc34)c[nH]c2c1 [DIINDOLYLMETHANE]
Log2 (fold) of luciferase activity relative to DMSO controls [2]: 0.465
Fold (luciferase activity relative to DMSO controls) [3]: 1.381 fold

COc1ccc([C@@H]2Sc3ccccc3N(CCN(C)C)C(=O)[C@@H]2OC(C)=O)cc1 [DILTIAZEM]
Log2 (fold) of luciferase activity relative to DMSO controls [2]: −0.205
Fold (luciferase activity relative to DMSO controls) [3]: 0.868 fold

CC/C=C\C/C=C\C/C=C\C/C=C\C/C=C\C/C=C\CCC(=O)O [DOCOSAHEXAENOIC ACID (22:6 n-3)]
Log2 (fold) (luciferase activity, log2 of the fold difference relative to DMSO controls) (assessed three days later): −0.248
Fold (luciferase activity, fold difference relative to DMSO controls) [1]: 0.842

CC/C=C\C/C=C\C/C=C\C/C=C\C/C=C\CCCCCC(=O)O [DOCOSAPENTAENOIC ACID]
Log2 (fold) of luciferase activity relative to DMSO controls [2]: −0.161
Fold (luciferase activity relative to DMSO controls) [3]: 0.895 fold

CC/C=C\C/C=C\C/C=C\CCCCCCCCCCCC(=O)O [DOCOSATRIENOIC ACID (22:3 n-3)]
Log2 (fold) of luciferase activity relative to DMSO controls [2]: −0.055
Fold (luciferase activity relative to DMSO controls) [3]: 0.963 fold

OC[C@H]1O[C@@H](n2cnc3cc(Cl)c(Cl)cc32)[C@H](O)[C@@H]1O [DRB]
Log2 (fold) (luciferase activity, log2 of the fold difference relative to DMSO controls) (assessed three days later): −0.246
Fold (luciferase activity, fold difference relative to DMSO controls) [1]: 0.843

CCCCCCCCCCC1=C(C)C(=O)C(OC)=C(OC)C1=O [Decylubiquinone]
Log2 (fold) (luciferase activity, log2 of the fold difference relative to DMSO controls) (assessed three days later): −0.442
Fold (luciferase activity, fold difference relative to DMSO controls) [1]: 0.736

C#CCN(C)C(C)Cc1ccccc1 (stereo not drawn) [Deprenyl]
Log2 (fold) (luciferase activity, log2 of the fold difference relative to DMSO controls) (assessed three days later): −0.642
Fold (luciferase activity, fold difference relative to DMSO controls) [1]: 0.641

Cc1cccc(CCN2CCC(C(=O)c3ccc(NS(C)(=O)=O)cc3)CC2)n1 [E-4031]
Log2 (fold) of luciferase activity relative to DMSO controls [2]: −0.195
Fold (luciferase activity relative to DMSO controls) [3]: 0.874 fold

CCCCCC[C@@H]([C@@H](C)O)n1cnc2c(N)ncnc21.Cl [EHNA HCl]
Log2 (fold) (luciferase activity, log2 of the fold difference relative to DMSO controls) (assessed three days later): −0.312
Fold (luciferase activity, fold difference relative to DMSO controls) [1]: 0.805

From US20130096067A1, “DROSOPHILA TUMOR STEM CELL MODEL AND USES THEREOF” (priority 2011, published 2013)
